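The compound was tested at five concentrations on cells cultured in 96-well plates, with a 48-hour exposure period. GI50 = concentration required for 50% inhibition of growth. TGI is the concentration that stops growth completely.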
System: SF-539 CNS
Experiment: DTP human tumour cell line panel, 48 h

Compound	GI50	TGI
CCn1c(-c2nonc2N)nc2c(C#CC(C)(C)O)nc(OC[C@H](N)c3ccccc3)cc21	2.35 µM	6.07 µM
O=C1/C(=C/c2ccc(Br)cc2)COc2ccc(O)c(O)c21	0.436 µM	1.19 µM
N#Cc1c(NN)n(C2OC(CO)C(O)C2O)c2ncnc(N)c12 (stereo not given)	0.337 µM	1.48 µM
CC(CCC=O)CCOCc1ccccc1 (stereo not given)		> 100 µM
Cc1ccc(C)c(C2=C(c3cn(C)c4ccccc34)C(=O)NC2=O)c1	> 16.4 µM	> 25 µM
O=C(Nc1nc2ccc(C(F)(F)F)cc2s1)c1cc(Cl)ccc1O	1.49 µM	> 100 µM
COc1cnc2c(c1)C(=O)c1c-2n(CCCNC(C)C)c(=O)c2cc(Cl)ccc12	0.554 µM	1.87 µM
COc1ccc2c(c1)CCCC(Br)C2=O (stereo not given)		> 19.9 µM
COc1ccc(-n2cc(-c3cc(OC)c(OC)c(OC)c3)c(C(=O)C(F)(F)F)c2C)cc1	> 100 µM	> 100 µM
COc1cc(C2CC(c3cccc(Br)c3)=NN2C(C)=O)cc(OC)c1OC (stereo not given)	0.265 µM	2.62 µM
COc1cc(N(CCC#N)CCC#N)ccc1/C(N=Nc1ccc([N+](=O)[O-])cc1)=N/NC(=O)c1cc(Br)ccc1O	33.2 µg/mL	122 µg/mL
CS(=O)(=O)Nc1ccc2c(c1)oc(=O)c1ccccc12		> 100 µM

System: SK-MEL-2 melanoma
Experiment: DTP human tumour cell line panel, 48 h

Compound	GI50	TGI
CCn1c(-c2nonc2N)nc2c(C#CC(C)(C)O)nc(OC[C@H](N)c3ccccc3)cc21	4.12 µM	8.24 µM
O=C1/C(=C/c2ccc(Br)cc2)COc2ccc(O)c(O)c21	1.69 µM	4.53 µM
N#Cc1c(NN)n(C2OC(CO)C(O)C2O)c2ncnc(N)c12 (stereo not given)	0.282 µM	0.946 µM
CC(CCC=O)CCOCc1ccccc1 (stereo not given)		> 100 µM
Cc1ccc(C)c(C2=C(c3cn(C)c4ccccc34)C(=O)NC2=O)c1	> 25 µM	> 25 µM
O=C(Nc1nc2ccc(C(F)(F)F)cc2s1)c1cc(Cl)ccc1O	0.798 µM	6.09 µM
COc1cnc2c(c1)C(=O)c1c-2n(CCCNC(C)C)c(=O)c2cc(Cl)ccc12	13.3 µM	34.9 µM
COc1ccc2c(c1)CCCC(Br)C2=O (stereo not given)		4.36 µM
COc1ccc(-n2cc(-c3cc(OC)c(OC)c(OC)c3)c(C(=O)C(F)(F)F)c2C)cc1	> 100 µM	> 100 µM
COc1cc(C2CC(c3cccc(Br)c3)=NN2C(C)=O)cc(OC)c1OC (stereo not given)	3.51 µM	55.5 µM
COc1cc(N(CCC#N)CCC#N)ccc1/C(N=Nc1ccc([N+](=O)[O-])cc1)=N/NC(=O)c1cc(Br)ccc1O	44.2 µg/mL	> 150 µg/mL
CS(=O)(=O)Nc1ccc2c(c1)oc(=O)c1ccccc12		> 100 µM

System: SK-MEL-5 melanoma
Experiment: DTP human tumour cell line panel, 48 h

Compound	GI50	TGI
CCn1c(-c2nonc2N)nc2c(C#CC(C)(C)O)nc(OC[C@H](N)c3ccccc3)cc21	4.21 µM	7.64 µM
O=C1/C(=C/c2ccc(Br)cc2)COc2ccc(O)c(O)c21	1.4 µM	2.84 µM
N#Cc1c(NN)n(C2OC(CO)C(O)C2O)c2ncnc(N)c12 (stereo not given)	0.461 µM	3.05 µM
CC(CCC=O)CCOCc1ccccc1 (stereo not given)		> 46.4 µM
Cc1ccc(C)c(C2=C(c3cn(C)c4ccccc34)C(=O)NC2=O)c1	> 25 µM	> 25 µM
O=C(Nc1nc2ccc(C(F)(F)F)cc2s1)c1cc(Cl)ccc1O	0.234 µM	0.684 µM
COc1cnc2c(c1)C(=O)c1c-2n(CCCNC(C)C)c(=O)c2cc(Cl)ccc12	1.14 µM	2.38 µM
COc1ccc2c(c1)CCCC(Br)C2=O (stereo not given)		9.22 µM
COc1ccc(-n2cc(-c3cc(OC)c(OC)c(OC)c3)c(C(=O)C(F)(F)F)c2C)cc1	7.33 µM	> 100 µM
COc1cc(C2CC(c3cccc(Br)c3)=NN2C(C)=O)cc(OC)c1OC (stereo not given)	0.289 µM	14.9 µM
COc1cc(N(CCC#N)CCC#N)ccc1/C(N=Nc1ccc([N+](=O)[O-])cc1)=N/NC(=O)c1cc(Br)ccc1O	26.3 µg/mL	46.9 µg/mL
CS(=O)(=O)Nc1ccc2c(c1)oc(=O)c1ccccc12		> 100 µM

System: SW-620 colon
Experiment: DTP human tumour cell line panel, 48 h

Compound	GI50	TGI
CCn1c(-c2nonc2N)nc2c(C#CC(C)(C)O)nc(OC[C@H](N)c3ccccc3)cc21	4.47 µM	8.67 µM
O=C1/C(=C/c2ccc(Br)cc2)COc2ccc(O)c(O)c21	0.671 µM	2.22 µM
N#Cc1c(NN)n(C2OC(CO)C(O)C2O)c2ncnc(N)c12 (stereo not given)	0.0254 µM	1.18 µM
CC(CCC=O)CCOCc1ccccc1 (stereo not given)		> 100 µM
Cc1ccc(C)c(C2=C(c3cn(C)c4ccccc34)C(=O)NC2=O)c1	13 µM	> 25 µM
O=C(Nc1nc2ccc(C(F)(F)F)cc2s1)c1cc(Cl)ccc1O	0.878 µM	36.3 µM
COc1cnc2c(c1)C(=O)c1c-2n(CCCNC(C)C)c(=O)c2cc(Cl)ccc12	0.0503 µM	1.71 µM
COc1ccc2c(c1)CCCC(Br)C2=O (stereo not given)		> 33.3 µM
COc1ccc(-n2cc(-c3cc(OC)c(OC)c(OC)c3)c(C(=O)C(F)(F)F)c2C)cc1	> 100 µM	> 100 µM
COc1cc(C2CC(c3cccc(Br)c3)=NN2C(C)=O)cc(OC)c1OC (stereo not given)	0.309 µM	> 100 µM
COc1cc(N(CCC#N)CCC#N)ccc1/C(N=Nc1ccc([N+](=O)[O-])cc1)=N/NC(=O)c1cc(Br)ccc1O	57.4 µg/mL	> 150 µg/mL
CS(=O)(=O)Nc1ccc2c(c1)oc(=O)c1ccccc12		> 100 µM

System: U251 CNS
Experiment: DTP human tumour cell line panel, 48 h

Compound	GI50	TGI
CCn1c(-c2nonc2N)nc2c(C#CC(C)(C)O)nc(OC[C@H](N)c3ccccc3)cc21	3.21 µM	6.67 µM
O=C1/C(=C/c2ccc(Br)cc2)COc2ccc(O)c(O)c21	0.588 µM	2.04 µM
N#Cc1c(NN)n(C2OC(CO)C(O)C2O)c2ncnc(N)c12 (stereo not given)	0.0919 µM	> 100 µM
CC(CCC=O)CCOCc1ccccc1 (stereo not given)		> 100 µM
Cc1ccc(C)c(C2=C(c3cn(C)c4ccccc34)C(=O)NC2=O)c1	> 25 µM	> 25 µM
O=C(Nc1nc2ccc(C(F)(F)F)cc2s1)c1cc(Cl)ccc1O	1.44 µM	26.9 µM
COc1cnc2c(c1)C(=O)c1c-2n(CCCNC(C)C)c(=O)c2cc(Cl)ccc12	0.0654 µM	1.53 µM
COc1ccc2c(c1)CCCC(Br)C2=O (stereo not given)		29.6 µM
COc1ccc(-n2cc(-c3cc(OC)c(OC)c(OC)c3)c(C(=O)C(F)(F)F)c2C)cc1	63.4 µM	> 100 µM
COc1cc(C2CC(c3cccc(Br)c3)=NN2C(C)=O)cc(OC)c1OC (stereo not given)	0.454 µM	53.4 µM
COc1cc(N(CCC#N)CCC#N)ccc1/C(N=Nc1ccc([N+](=O)[O-])cc1)=N/NC(=O)c1cc(Br)ccc1O	57.3 µg/mL	> 150 µg/mL
CS(=O)(=O)Nc1ccc2c(c1)oc(=O)c1ccccc12		> 100 µM
